From publication PMC9962794, “A Novel and Functionally Diverse Class of Acetylcholine-Gated Ion Channels” (The Journal of Neuroscience, 2023)
Where two headings read alike, the source gives them in different places.

Experiments:
Experiment in all cases: two-electrode voltage clamp, oocytes
Assay type in all cases: cell-based
[1] = molecular target: T1, LGC-39 (Caenorhabditis elegans, UniProt O17402)
T1 construct: full-length cDNA by gene synthesis, KSM vector, cRNA in Xenopus laevis oocytes; homomeric pentameric channel
T1 sequence (O17402 22-563): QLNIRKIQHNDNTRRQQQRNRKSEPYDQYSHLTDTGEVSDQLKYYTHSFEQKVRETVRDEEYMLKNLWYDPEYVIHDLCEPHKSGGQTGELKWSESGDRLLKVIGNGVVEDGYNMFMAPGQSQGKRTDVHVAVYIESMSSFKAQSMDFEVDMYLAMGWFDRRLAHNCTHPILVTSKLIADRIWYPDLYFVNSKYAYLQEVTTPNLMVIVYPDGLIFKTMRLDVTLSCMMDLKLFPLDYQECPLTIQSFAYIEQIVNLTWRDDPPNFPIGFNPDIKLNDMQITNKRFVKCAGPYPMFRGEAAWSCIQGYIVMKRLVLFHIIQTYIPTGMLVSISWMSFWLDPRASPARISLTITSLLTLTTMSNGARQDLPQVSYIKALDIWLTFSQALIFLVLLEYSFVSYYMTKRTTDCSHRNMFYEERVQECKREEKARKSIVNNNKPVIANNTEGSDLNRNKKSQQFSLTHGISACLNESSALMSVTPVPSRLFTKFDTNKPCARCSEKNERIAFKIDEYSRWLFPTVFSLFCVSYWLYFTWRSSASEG

[2] = molecular target: T1, LGC-39; remark: listed apart in the source
[3] = molecular target: T2, LGC-40 (Caenorhabditis elegans, UniProt Q22741)
T2 construct: full-length untagged cDNA in KSM vector, cRNA in Xenopus laevis oocytes; pentameric, expressed alone
T2 sequence (Q22741 23-494): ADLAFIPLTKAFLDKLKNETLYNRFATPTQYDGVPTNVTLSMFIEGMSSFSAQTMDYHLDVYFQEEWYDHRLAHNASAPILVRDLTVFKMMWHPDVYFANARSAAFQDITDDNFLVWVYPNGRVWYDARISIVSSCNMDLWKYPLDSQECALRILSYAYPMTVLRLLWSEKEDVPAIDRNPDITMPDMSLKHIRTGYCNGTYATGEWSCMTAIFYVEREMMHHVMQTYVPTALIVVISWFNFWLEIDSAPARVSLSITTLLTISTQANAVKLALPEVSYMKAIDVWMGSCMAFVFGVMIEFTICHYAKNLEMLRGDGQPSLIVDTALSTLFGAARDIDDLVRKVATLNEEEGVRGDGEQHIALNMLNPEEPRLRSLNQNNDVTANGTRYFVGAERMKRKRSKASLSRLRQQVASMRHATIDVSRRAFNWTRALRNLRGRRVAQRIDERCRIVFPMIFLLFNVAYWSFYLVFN

[4] = molecular target: T3, LGC-57 (Caenorhabditis elegans, UniProt Q09453)
T3 construct: full-length untagged cDNA in KSM vector, cRNA in Xenopus laevis oocytes; pentameric, expressed alone
T3 sequence (Q09453 20-473): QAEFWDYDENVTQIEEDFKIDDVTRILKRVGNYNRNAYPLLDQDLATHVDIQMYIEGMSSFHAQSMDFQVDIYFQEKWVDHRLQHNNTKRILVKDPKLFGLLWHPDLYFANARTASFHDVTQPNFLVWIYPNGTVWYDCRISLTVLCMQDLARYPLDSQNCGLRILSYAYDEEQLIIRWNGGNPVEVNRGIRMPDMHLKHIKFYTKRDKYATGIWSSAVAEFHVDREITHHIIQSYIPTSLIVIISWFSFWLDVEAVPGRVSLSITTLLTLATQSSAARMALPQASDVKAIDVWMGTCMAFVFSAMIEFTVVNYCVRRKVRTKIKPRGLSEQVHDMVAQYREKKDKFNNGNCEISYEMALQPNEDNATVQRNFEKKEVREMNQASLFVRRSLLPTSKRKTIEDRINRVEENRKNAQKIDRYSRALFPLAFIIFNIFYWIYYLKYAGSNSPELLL

[5] = molecular target: T4, LGC-58 (Caenorhabditis elegans, UniProt Q2WF65)
T4 construct: full-length untagged cDNA in KSM vector, cRNA in Xenopus laevis oocytes; pentameric, expressed alone
T4 sequence (Q2WF65 21-546): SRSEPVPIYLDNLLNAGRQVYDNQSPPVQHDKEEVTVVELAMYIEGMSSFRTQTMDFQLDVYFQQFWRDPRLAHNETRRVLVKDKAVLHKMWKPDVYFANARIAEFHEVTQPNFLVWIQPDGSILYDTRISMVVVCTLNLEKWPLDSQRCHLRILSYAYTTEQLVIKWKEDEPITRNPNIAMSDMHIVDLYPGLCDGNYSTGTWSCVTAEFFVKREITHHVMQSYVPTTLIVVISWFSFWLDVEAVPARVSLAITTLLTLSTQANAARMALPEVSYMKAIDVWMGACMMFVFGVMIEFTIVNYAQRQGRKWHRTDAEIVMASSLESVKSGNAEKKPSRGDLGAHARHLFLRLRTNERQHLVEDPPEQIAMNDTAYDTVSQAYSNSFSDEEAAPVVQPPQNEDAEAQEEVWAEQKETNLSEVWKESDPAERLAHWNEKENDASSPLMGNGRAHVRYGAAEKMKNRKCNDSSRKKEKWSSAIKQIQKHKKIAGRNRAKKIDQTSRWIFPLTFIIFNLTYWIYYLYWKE

[6] = molecular target: T5, LGC-46 (Caenorhabditis elegans, UniProt Q95Y52); conditions: agonist; ND96, clamped at -60 mV
T5 construct: full-length cDNA in KSM vector, cRNA in Xenopus laevis oocytes; pentameric, expressed alone
T5 sequence (Q95Y52 19-508): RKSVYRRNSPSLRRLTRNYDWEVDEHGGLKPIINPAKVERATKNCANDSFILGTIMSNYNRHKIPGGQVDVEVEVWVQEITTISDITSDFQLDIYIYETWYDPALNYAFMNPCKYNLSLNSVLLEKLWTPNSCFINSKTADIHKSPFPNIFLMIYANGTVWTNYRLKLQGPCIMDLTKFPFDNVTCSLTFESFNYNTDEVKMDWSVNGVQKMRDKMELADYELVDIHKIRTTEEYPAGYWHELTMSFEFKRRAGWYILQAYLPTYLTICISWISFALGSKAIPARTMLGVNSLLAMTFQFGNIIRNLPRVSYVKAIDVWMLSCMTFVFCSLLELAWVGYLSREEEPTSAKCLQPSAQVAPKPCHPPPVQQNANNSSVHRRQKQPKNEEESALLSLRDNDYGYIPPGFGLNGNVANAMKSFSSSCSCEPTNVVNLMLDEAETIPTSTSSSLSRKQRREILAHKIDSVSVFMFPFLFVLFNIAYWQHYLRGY

[7] = molecular target: T6, LGC-49 (Caenorhabditis elegans, UniProt Q21420)
T6 construct: full-length cDNA in KSM vector, cRNA in Xenopus laevis oocytes; homomeric pentameric channel
T6 sequence (Q21420 26-457): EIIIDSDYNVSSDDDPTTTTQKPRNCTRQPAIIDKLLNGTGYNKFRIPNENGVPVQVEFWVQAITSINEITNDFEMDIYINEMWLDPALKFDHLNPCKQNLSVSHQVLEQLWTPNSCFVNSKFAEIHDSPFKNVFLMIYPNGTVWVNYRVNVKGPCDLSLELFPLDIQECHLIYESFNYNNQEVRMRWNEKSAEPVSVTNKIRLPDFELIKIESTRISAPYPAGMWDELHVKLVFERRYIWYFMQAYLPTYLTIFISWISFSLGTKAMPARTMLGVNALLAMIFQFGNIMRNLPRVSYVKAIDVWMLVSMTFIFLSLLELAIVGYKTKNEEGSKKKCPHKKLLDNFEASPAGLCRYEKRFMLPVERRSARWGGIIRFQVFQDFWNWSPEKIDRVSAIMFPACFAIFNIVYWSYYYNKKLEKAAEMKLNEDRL

With `COC(=O)[C@@H]1[C@H]2C[C@H]3c4[nH]c5ccccc5c4CCN3C[C@@H]2CC[C@@H]1O` [yohimbine] the IC50 [1] was 4 µM.

Work on `O=C1C[C@@H]2OCC=C3CN4CC[C@]56c7ccccc7N1[C@H]5[C@H]2[C@H]3C[C@H]46` [strychnine] yielded an EC50 [2] of 7.5 µM.

`NC1=NCC2c3ccccc3Cc3ccccc3N12` (stereo not drawn) [epinastine] gave an IC50 [1] of 1 µM and an EC50 ([2]; read-out: EC50) of 10 µM.

In the case of `NCCc1ccc(O)cc1` [tyramine], the EC50 ([2]; read-out: EC50) is reported as 686 µM.

With `C[N+](C)(C)CCO` [choline] the EC50 [3] was 15 µM, the EC50 [4] was 22 µM and the EC50 [5] was 15 µM.

For `NC[C@H](O)c1ccc(O)cc1` [octopamine], the EC50 ([2]; read-out: EC50) was 921 µM.

For `CC(=O)OCC[N+](C)(C)C` [acetylcholine], the EC50 [3] was 117 µM, the EC50 [6] was “the ACh-induced dose–response curve for LGC-46” and the EC50 ([2]; read-out: EC50) was 1290 µM. The EC50 [4] was 115 µM, the EC50 [7] was 19 µM and the EC50 [5] was 41 µM.
